Test results published in patent US8808992B2, “SHOC2 mutations causing noonan-like syndrome with loose anagen hair” (Icahn School of Medicine at Mount Sinai, priority 2009, dated 2014).

Biological target: T1, NMT (Homo sapiens, UniProt P30419)
T1 construct: host or cells: Cos-1
T1 sequence (P30419 1-496): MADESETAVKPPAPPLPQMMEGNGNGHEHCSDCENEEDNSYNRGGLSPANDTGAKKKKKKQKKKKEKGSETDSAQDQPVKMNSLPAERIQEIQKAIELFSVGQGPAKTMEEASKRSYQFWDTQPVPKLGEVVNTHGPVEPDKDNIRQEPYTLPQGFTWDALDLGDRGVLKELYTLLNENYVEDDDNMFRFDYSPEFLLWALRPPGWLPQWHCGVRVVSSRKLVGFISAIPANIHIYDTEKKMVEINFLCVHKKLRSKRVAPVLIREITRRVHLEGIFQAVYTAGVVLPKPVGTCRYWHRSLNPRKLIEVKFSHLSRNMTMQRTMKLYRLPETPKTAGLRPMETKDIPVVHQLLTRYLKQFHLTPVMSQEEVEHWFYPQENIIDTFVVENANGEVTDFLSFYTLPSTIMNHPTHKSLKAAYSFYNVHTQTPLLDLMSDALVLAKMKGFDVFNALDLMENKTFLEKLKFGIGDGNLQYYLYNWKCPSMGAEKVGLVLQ
Assay: Membrane targeting of V5-tagged SHOC2^S2G in Cos-1 cells treated with an NMT inhibitor (confocal laser scanning microscopy)
Format: cell-based, African green monkey
Protocol: FIG. 8. Myristoylation is required for membrane targeting of the SHOC2^S2G mutant. […] Confocal laser scanning microscopy was performed using anti-V5 monoclonal antibody, followed by Alexa Fluor-594 goat anti-mouse antibody (red), while actin cytoskeleton was detected by Alexa Fluor 488-phalloidin (green). Nuclei are visualized by DAPI staining (blue). Co-localization areas were detected in yellow. Images represent single optical sections representative of >50 transfected cells observed in each experiment. Bars indicate 20 μm.
N-myristoylation facilitates anchoring of proteins to intracellular membranes. To explore whether it conferred membrane targeting to mutant SHOC2, the subcellular localization of tagged SHOC2 proteins was analyzed in Cos-1 cells (FIG. 2b and FIG. 6). Confocal laser microscopy analysis documented that SHOC2^wt was uniformly distributed in the cytoplasm and nucleus in starved cells but was restricted to the nucleus following EGF stimulation, implying an unexpected role for this protein in signal transduction. […]
In silico analysis of protein N-myristoylation was performed using Myristoylator (http://www.expasy.org/tools/myristoylator/), TermiNator (http://www.isv.cnrs-gif.fr/terminator3/index.html) and NMT (http.//mendel.imp.ac.at/sat/myristate/index.html) software. […] N-myristoylation was evaluated by [^3H]myristic acid (30 μCi/ml) incorporation as described elsewhere^26. […]

membrane targeting of V5-tagged SHOC2^S2G (Cos-1 cells treated with 200 μM (middle) and 300 μM (bottom), compared with untreated cells): progressively lost
SHOC2^S2G's membrane localization (Cos-1 cells, treatment at varying doses (FIG. 8)): reduced or abolished
Compound: CCCCCCCCCCCCC(O)C(=O)O (centres unmarked) [2-hydroxymyristic acid]
